From patent US20120202690A1, “HERBICIDAL COMPOUNDS” (SYNGENTA LIMITED, priority 2009, published 2012)

Columns and labels:
[1] = test system: Alopecurus myosuroides (ALOMY); experiment: Pre-emergence biological efficacy, glasshouse, 1000 g/ha, evaluated after 13 days (100=total damage to plant; 0=no damage to plant); type: in vivo; conditions: Alopecurus myosuroides, 312 h, read-out: Percentage damage caused to weed species, pre-emergence, ALOMY; for pest or weed control at 1000 g/ha: rate 1,000 g/ha
Method in brief: (§1)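 Standard soil in pots received the seeds. Growth took place in a glasshouse held at 24/16° C. day/night, 65% humidity and 14 h of light.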

[2] = test system: Amaranthus retroflexus (AMARE); experiment: as above; type: in vivo; conditions: Amaranthus retroflexus, 312 h, read-out: Percentage damage caused to weed species, pre-emergence, AMARE; for pest or weed control at 1000 g/ha: rate 1,000 g/ha
Method in brief: as §1

[3] = test system: Echinochloa crus-galli (ECHCG); experiment: as above; type: in vivo; conditions: Echinochloa crus-galli, 312 h, read-out: Percentage damage caused to weed species, pre-emergence, ECHCG; for pest or weed control at 1000 g/ha: rate 1,000 g/ha
Method in brief: as §1

[4] = test system: Ipomoea hederaceae (IPOHE); experiment: as above; type: in vivo; conditions: Ipomoea, 312 h, read-out: Percentage damage caused to weed species, pre-emergence, IPOHE; for pest or weed control at 1000 g/ha: rate 1,000 g/ha
Method in brief: as §1

Setaria faberi (SETFA) [5] = experiment: as above; type: in vivo; conditions: Setaria faberi, 312 h, read-out: Percentage damage caused to weed species, pre-emergence, SETFA; for pest or weed control at 1000 g/ha: rate 1,000 g/ha
Method in brief: as §1

Solanum nigrum (SOLNI) [6] = experiment: as above; type: in vivo; conditions: Solanum nigrum, 312 h, read-out: Percentage damage caused to weed species, pre-emergence, SOLNI; for pest or weed control at 1000 g/ha: rate 1,000 g/ha
Method in brief: as §1

[7] = test system: Alopecurus myosuroides (ALOMY); experiment: Post-emergence biological efficacy, glasshouse, 500 or 1000 g/ha, evaluated after 13 days (100=total damage to plant; 0=no damage to plant); type: in vivo; conditions: Alopecurus myosuroides, 312 h, read-out: Percentage damage caused to weed species, post-emergence, ALOMY; for pest or weed control at 1000 g/ha: rate 1,000 g/ha
Method in brief: (§2)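 Weed seeds were sown in standard soil in pots and the plants treated post-emergence. Afterwards they were grown on in a controlled glasshouse at 24/16° C. day/night with 14 hours light and 65% humidity, and watered twice daily.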

[8] = test system: Amaranthus retroflexus (AMARE); experiment: as above; type: in vivo; conditions: Amaranthus retroflexus, 312 h, read-out: Percentage damage caused to weed species, post-emergence, AMARE; for pest or weed control at 1000 g/ha: rate 1,000 g/ha
Method in brief: as §2

[9] = test system: Echinochloa crusgaffi (ECHCG); experiment: as above; type: in vivo; conditions: Echinochloa, 312 h, read-out: Percentage damage caused to weed species, post-emergence, ECHCG; for pest or weed control at 1000 g/ha: rate 1,000 g/ha
Method in brief: as §2

[10] = test system: Ipomoea hederaceae (IPOHE); experiment: as above; type: in vivo; conditions: Ipomoea, 312 h, read-out: Percentage damage caused to weed species, post-emergence, IPOHE; for pest or weed control at 1000 g/ha: rate 1,000 g/ha
Method in brief: as §2

Setaria faberi (SETFA) [11] = experiment: as above; type: in vivo; conditions: Setaria faberi, 312 h, read-out: Percentage damage caused to weed species, post-emergence, SETFA; for pest or weed control at 1000 g/ha: rate 1,000 g/ha
Method in brief: as §2

Solanum nigrum (SOLNI) [12] = experiment: as above; type: in vivo; conditions: Solanum nigrum, 312 h, read-out: Percentage damage caused to weed species, post-emergence, SOLNI; for pest or weed control at 1000 g/ha: rate 1,000 g/ha
Method in brief: as §2

Row | melting point [°C] | Compound | pest or weed control at 1000 g/ha [1] [%] | pest or weed control at 1000 g/ha [2] [%] | pest or weed control at 1000 g/ha [3] [%] | pest or weed control at 1000 g/ha [4] [%] | pest or weed control at 1000 g/ha (Setaria faberi (SETFA) [5]) [%] | pest or weed control at 1000 g/ha (Solanum nigrum (SOLNI) [6]) [%] | pest or weed control at 1000 g/ha [7] [%] | pest or weed control at 1000 g/ha [8] [%] | pest or weed control at 1000 g/ha [9] [%] | pest or weed control at 1000 g/ha [10] [%] | pest or weed control at 1000 g/ha (Setaria faberi (SETFA) [11]) [%] | pest or weed control at 1000 g/ha (Solanum nigrum (SOLNI) [12]) [%] | further results
1 | 211 | COC(=O)c1nc(-c2ccc(Cl)c(F)c2)nc2c1n(Cc1ccccc1)c(=O)c(=O)n2Cc1ccccc1 [Compound 95-160, 2-(4-chloro-3-fluorophenyl)-5,8-dibenzyl-6,7-dioxo-4-methoxycarbonyl-5,6,7,8-tetrahydropteridine] | – | – | – | – | – | – | – | – | – | – | – | – | pest or weed control at 250 g/ha ([1]; rate 250 g/ha): 0%; pest or weed control at 250 g/ha ([2]; rate 250 g/ha): 0%; pest or weed control at 250 g/ha ([3]; rate 250 g/ha): 0%; pest or weed control at 250 g/ha ([4]; rate 250 g/ha): 0%; pest or weed control at 250 g/ha (Setaria faberi (SETFA) [5]; rate 250 g/ha): 0%; pest or weed control at 250 g/ha (Solanum nigrum (SOLNI) [6]; rate 250 g/ha): 0%; pest or weed control at 250 g/ha ([7]; rate 250 g/ha): 10%; pest or weed control at 250 g/ha ([8]; rate 250 g/ha): 20%; pest or weed control at 250 g/ha ([9]; rate 250 g/ha): 10%; pest or weed control at 250 g/ha ([10]; rate 250 g/ha): 20%; pest or weed control at 250 g/ha (Setaria faberi (SETFA) [11]; rate 250 g/ha): 40%; pest or weed control at 250 g/ha (Solanum nigrum (SOLNI) [12]; rate 250 g/ha): 30%
2 | 146 | COC(=O)c1nc(-c2ccc(Cl)c(OC)c2F)nc2c1N(Cc1ccccc1)CCN2Cc1ccccc1 [Compound 95-168, 2-(4-Chloro-2-fluoro-3-methoxyphenyl)-5,8-dibenzyl-4-methoxy-carbonyl-5,6,7,8-tetrahydropteridine] | 0 | 0 | 0 | 0 | 0 | 0 | 0 | 0 | 0 | 10 | 0 | 10 | –
3 | 217 to 219 | COC(=O)c1nc(C2CC2)nc2c1Nc1ccccc1N2 [Compound 119-28, 2-Cyclo-propyl-4-methoxy-carbonyl-5,10-dihydro-benzo[g] pteridine] | 0 | 0 | 0 | 0 | 0 | 0 | 0 | 20 | 0 | 10 | 0 | 20 | –
4 | 160 to 162 | COC(=O)c1nc(-c2ccc(Cl)c(OC)c2F)nc2ncccc12 [Compound 123-50, 2-(4-chloro-2-fluoro-3-methoxyphenyl)-4-methoxycarbonyl-pyrido[2,3-d]pyrimidine] | 0 | 0 | 0 | 0 | 0 | 0 | 0 | 0 | 10 | 10 | 10 | 20 | –
